Patent US20120190690A1, “E[…] THE TREATMENT OF WEIGHT DISORDERS” (MERZ PHARMA GmbH & CO. KGaA, priority 2009, published 2012)
“Also recorded” adds a separate entry of the source.

Columns and labels:
[1] = biological target: T1, human serotonin 5-HT1a receptor (Homo sapiens, UniProt P08908); experiment: GTPγS assay, recombinant CHO-K1 membranes, agonist testing; format: biochemical; conditions: human recombinant cell line; FIG. 1
T1 construct: expressed in transfected cells; host or cells: CHO-K1
T1 sequence (P08908 1-422): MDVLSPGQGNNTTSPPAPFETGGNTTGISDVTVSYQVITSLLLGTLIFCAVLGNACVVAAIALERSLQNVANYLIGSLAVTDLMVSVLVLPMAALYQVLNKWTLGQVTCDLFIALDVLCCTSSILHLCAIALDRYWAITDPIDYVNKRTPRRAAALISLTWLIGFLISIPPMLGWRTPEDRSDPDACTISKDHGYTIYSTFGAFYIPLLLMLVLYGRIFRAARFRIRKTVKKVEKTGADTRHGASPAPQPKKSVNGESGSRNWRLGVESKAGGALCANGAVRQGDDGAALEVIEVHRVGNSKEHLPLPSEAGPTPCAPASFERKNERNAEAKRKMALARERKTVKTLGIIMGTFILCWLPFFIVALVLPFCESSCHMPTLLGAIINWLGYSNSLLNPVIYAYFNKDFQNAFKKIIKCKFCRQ
Experimental: (§1) Eltoprazine was tested for activity on the human serotonin 5-HT1a and 5-HT1b receptors using a GTPγS assay. Recombinant membranes obtained from CHO-K1 cells expressing either the 5-HT1a or 5-HT1b receptors were mixed with GDP (volume:volume) and incubated for at least 15 min on ice. In parallel, GTPγ[35S] was mixed with the beads (volume:volume) just before starting the reaction. The following reagents were successively added in the wells of an Optiplate (Perkin Elmer): 50 μl of test compound, 20 μl of the membranes:GDP mix, 10 μl of assay buffer (for agonist testing) and 20 μl of the GTPγ[35S]:beads mix. The plates were covered with a top seal, shaken on an orbital shaker for 2 min, and then incubated for 1 h at room temperature. Then the plates were centrifuged for 10 min at 2000 rpm, incubated at room temperature 1 h and counted for 1 min/well with a PerkinElmer TopCount reader.

[2] = biological target: T2, human serotonin 5-HT1b receptor (Homo sapiens, UniProt P28222); experiment: as above; format: biochemical; conditions: human recombinant cell line; FIG. 1
T2 construct: expressed in transfected cells; host or cells: CHO-K1
Experimental: as §1

[3] = biological target: T3, 5-HT2a recombinant receptor (Homo sapiens, UniProt P28223); experiment: Aequorin cell line functional assay, agonist testing; format: cell-based; conditions: FIG. 1
T3 construct: expressed in transfected cells
Experimental: (§2) Aequorin cell lines expressing the 5-HT2a, 5-HT2b and 5-HT2c non-edited (ne) recombinant receptors were used to evaluate the functional activity of eltoprazine. Aequorin cells grown 18 h prior to the test in media without antibiotics were detached by gentle flushing with PBS-EDTA (5 mM EDTA), recovered by centrifugation and resuspended in “assay buffer” (DMEM/HAM's F12 with HEPES+0.1% BSA protease free). Cells were incubated at room temperature for at least 4 h with Coelenterazine h (Molecular Probes). The reference agonist used were 5-HT and α-methyl-5-HT. For agonist testing, 50 μl of cell suspension were injected on 50 μl of test compound or reference agonist plated in a 96-well plate. The resulting emission of light was recorded using the Hamamatsu Functional Drug Screening System 6000 (FDSS 6000).

[4] = biological target: T4, 5-HT2c non-edited (ne) recombinant receptor (Homo sapiens, UniProt P28335); experiment: as above; format: cell-based; conditions: FIG. 1
T4 construct: expressed in transfected cells
T4 sequence (P28335 33-458): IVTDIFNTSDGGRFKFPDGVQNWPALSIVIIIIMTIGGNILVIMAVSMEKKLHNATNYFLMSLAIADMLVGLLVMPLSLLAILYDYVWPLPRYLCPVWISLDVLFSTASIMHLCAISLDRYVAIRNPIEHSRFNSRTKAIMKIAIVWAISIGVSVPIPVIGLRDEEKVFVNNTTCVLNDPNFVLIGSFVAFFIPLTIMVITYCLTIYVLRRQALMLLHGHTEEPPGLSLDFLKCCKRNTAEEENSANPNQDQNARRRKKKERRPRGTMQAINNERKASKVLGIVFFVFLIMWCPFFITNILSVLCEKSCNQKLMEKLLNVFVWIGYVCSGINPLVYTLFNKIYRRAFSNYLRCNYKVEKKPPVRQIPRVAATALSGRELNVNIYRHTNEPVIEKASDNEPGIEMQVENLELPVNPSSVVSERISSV
Experimental: as §2

[5] = tested on: 6-OHDA-lesioned rat model of Parkinson's disease; experiment: Turning behaviour induced by high dose of L-DOPA in 6-OHDA-lesioned rats; format: in vivo; conditions: eltoprazine 0.3, 1.25 and 5 mg/kg 30 min before test; 180 min rotometer; FIG. 3
Experimental: (§3) Male Sprague Dawley rats (Elevage Janvier, Le Genest Saint Isle, France) weighing between 220 and 250 g at the beginning of the study are used in these experiments. They are housed under a 12 h light/dark cycle with free access to standard pelleted food and tap water. Animal treatment and experimental procedures are approved by local ethical committees (Regierungspräsidium Darmstadt; Germany).
(§4) Dopamine-denervating lesions are performed on rats anaesthetized with a 5:1 mixture of ketamine and xylazine (1 ml/kg, i.p.). […] The animals' turning behaviour is recorded in an automated rotometer (TSE Rotameter System, TSE-Systems GmbH, Bad Homburg, Germany) over a 90 min period after the intraperitoneal (i.p.) injection of 2.5 mg/kg dexamphetamine sulphate dissolved in saline. […]
In order to evaluate the effect of eltoprazine on parkinsonian symptoms and its interaction with L-DOPA, rotational behaviour is evaluated. The numbers of ipsilateral and contralateral turns are recorded in an automated rotometer (TSE Rotameter System, TSE-Systems GmbH, Bad Homburg, Germany) over a period of 180 min. […]

5-HT1b receptor = conditions: Schipper et al. 1990; cited from earlier work
[6] = Plasma levels in the rat weight study; format: in vivo; conditions: N=8
Experimental: (§5) Eltoprazine hydrochloride was dissolved in sterile water. Animals were treated for 2 weeks using Alzet osmotic pumps (2ML2) implanted under the skin on the back delivering constantly eltoprazine solution or using b.i.d. s.c. Treatment. During the treatment, the rats were kept in single cages.
(§6) Group 1: vehicle (osmotic pump; saline) Group 2: eltoprazine 8 mg/kg/day (osmotic pump; in distilled water) Group 3: vehicle (2 daily injections—9 am & 3 pm—s.c.; in distilled water) Group 4: eltoprazine 1 mg/kg (2 daily injections—9 am & 3 pm—s.c.; in distilled water)

[7] = tested on: 5-HT2c (initially designated 5-HT1c); conditions: Schipper et al. 1990; cited from earlier work
Sprague-Dawley rats = experiment: Effect of eltoprazine on weight gain and food intake of rats; format: in vivo, rat; conditions: vs vehicle
Experimental: Experimentally naive adult male Sprague-Dawley rats (250-300 g; Janvier, France) were housed in groups of four per cage. Colony room temperature and humidity were maintained respectively at 20±1° C. and 60±3%. Food and water were available ad libitum and the animals were kept under an alternating 12 h/12 h day-night cycle (lights on at 07.00) for at least 6 days before the experiments were started. All experiments were conducted during the light period of the day-night cycle.
as §5, §6
Groups 3 and 4 were NOT injected at the weekend, and the weight and food intake were not recorded at the weekend.
Weight of animals and food intake were measured daily for two weeks (with exception of weekends).

[8] = tested on: 6-OHDA-lesioned rat model of Parkinson's disease; experiment: L-DOPA induced dyskinesia (AIM scores) in unilaterally 6-OHDA-lesioned rats; format: in vivo; conditions: eltoprazine hydrochloride 0.08, 0.3, 1.25 and 5 mg/kg s.c. 30 min before test; after 21 days L-DOPA 6 mg/kg + benserazide 15 mg/kg i.p.; FIG. 2
Experimental: as §3, §4
In order to evaluate the severity of LID, AIMs are recorded every second day as described by Cenci et al. (1998). […] Each rat is scored on a severity scale from 0 to 4 based on its frequency and persistence (1=occasional; 2=frequent; 3=continuous but interrupted by sensory distraction; 4=continuous, severe and not interrupted by sensory distraction). […]

patients = conditions: clinical trials in aggressive behaviour (de Koning et al. 1994); cited from earlier work
5-HT1a receptor = conditions: Schipper et al. 1990; cited from earlier work

T3 sequence (P28223 whole entry): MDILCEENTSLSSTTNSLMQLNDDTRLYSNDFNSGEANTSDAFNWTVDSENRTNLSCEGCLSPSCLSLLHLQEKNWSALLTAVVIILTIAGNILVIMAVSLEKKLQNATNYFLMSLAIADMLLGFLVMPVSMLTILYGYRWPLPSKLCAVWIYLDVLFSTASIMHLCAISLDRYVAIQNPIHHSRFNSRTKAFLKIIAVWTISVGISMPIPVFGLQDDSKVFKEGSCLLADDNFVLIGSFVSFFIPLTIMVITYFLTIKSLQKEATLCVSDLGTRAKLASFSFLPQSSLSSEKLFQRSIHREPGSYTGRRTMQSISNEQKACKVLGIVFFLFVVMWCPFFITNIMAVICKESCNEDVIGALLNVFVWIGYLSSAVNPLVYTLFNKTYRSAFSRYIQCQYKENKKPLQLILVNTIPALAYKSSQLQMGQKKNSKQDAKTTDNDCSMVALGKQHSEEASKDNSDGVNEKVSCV
T2 sequence (P28222 whole entry): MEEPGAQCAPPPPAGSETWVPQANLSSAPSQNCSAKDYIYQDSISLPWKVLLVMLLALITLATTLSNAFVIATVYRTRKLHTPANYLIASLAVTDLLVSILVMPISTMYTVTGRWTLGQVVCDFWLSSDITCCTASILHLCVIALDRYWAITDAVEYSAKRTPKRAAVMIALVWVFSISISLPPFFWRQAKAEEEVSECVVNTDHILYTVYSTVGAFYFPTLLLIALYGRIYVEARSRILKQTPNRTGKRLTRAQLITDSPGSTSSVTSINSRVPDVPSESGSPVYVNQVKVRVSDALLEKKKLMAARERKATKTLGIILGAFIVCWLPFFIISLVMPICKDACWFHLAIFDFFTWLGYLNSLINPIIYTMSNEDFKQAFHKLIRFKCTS

With c1cc2c(c(N3CCNCC3)c1)OCCO2 [eltoprazine, 1-(2,3-dihydro-1,4-benzodioxin-8-yl)piperazine] the “functional activity at 5-HT1a receptor” value [1] was “partial agonistic action”, the “functional activity at 5-HT1b receptor” value [2] was “partial agonistic action” and the “functional activity at 5-HT2a receptor” value [3] was “full agonist”. The “functional activity at 5-HT2c receptor” value [4] was “full agonist”, the “effect on turning behaviour induced by L-DOPA (antiparkinsonian effect of L-DOPA)” value [5] was “does not interfere with the antiparkinsonian effect of L-DOPA” and the “pharmacological action on 5-HT1b receptor” value (5-HT1b receptor) was “agonistic effect”. The plasma levels ([6]; 1 mg/kg s.c. b.i.d. injections) was “approx. 55 ng/ml”, the “plasma levels (range)” value ([6]; 1 mg/kg s.c. b.i.d. injections) was 48 to 65 ng/mL and the plasma levels ([6]; osmotic minipump 8 mg/kg/day) was “approx. 110 ng/ml”. For the same molecule, the “plasma levels (range)” value ([6]; osmotic minipump 8 mg/kg/day) was 86 to 143 ng/mL, the “effect on 5-HT2c” value [7] was “antagonistic” and the weight gain (Sprague-Dawley rats; 1 mg/kg s.c. b.i.d. injections, 2 weeks (not at weekends), FIG. 5A) was “delay in weight gain; also recorded: significant effect of treatment”. The food intake (Sprague-Dawley rats; 1 mg/kg s.c. b.i.d. injections, 2 weeks (not at weekends), FIG. 5B) was “reduced food intake; also recorded: significant effect of treatment”, the weight gain (Sprague-Dawley rats; osmotic minipump 8 mg/kg/day, 2 weeks, FIG. 4A) was “delay in weight gain; also recorded: significant effect of treatment” and the food intake (Sprague-Dawley rats; osmotic minipump 8 mg/kg/day, 2 weeks, FIG. 4B) was “reduced food intake; also recorded: significant effect of treatment”. The “effect on AIM scores” value [8] was “significantly reverses, in a dose-dependent manner”, the clinical safety (patients) was “clinically safe” and the “pharmacological action on 5-HT1a receptor” value (5-HT1a receptor) was “agonistic effect”.
